This note sets out measurements from patent US8133884B2, “Compounds for the treatment of hepatitis C” (priority 2008, dated 2012).

Each structure is given as a SMILES string.

T1 sequence (Q9WMX2 2420-2992): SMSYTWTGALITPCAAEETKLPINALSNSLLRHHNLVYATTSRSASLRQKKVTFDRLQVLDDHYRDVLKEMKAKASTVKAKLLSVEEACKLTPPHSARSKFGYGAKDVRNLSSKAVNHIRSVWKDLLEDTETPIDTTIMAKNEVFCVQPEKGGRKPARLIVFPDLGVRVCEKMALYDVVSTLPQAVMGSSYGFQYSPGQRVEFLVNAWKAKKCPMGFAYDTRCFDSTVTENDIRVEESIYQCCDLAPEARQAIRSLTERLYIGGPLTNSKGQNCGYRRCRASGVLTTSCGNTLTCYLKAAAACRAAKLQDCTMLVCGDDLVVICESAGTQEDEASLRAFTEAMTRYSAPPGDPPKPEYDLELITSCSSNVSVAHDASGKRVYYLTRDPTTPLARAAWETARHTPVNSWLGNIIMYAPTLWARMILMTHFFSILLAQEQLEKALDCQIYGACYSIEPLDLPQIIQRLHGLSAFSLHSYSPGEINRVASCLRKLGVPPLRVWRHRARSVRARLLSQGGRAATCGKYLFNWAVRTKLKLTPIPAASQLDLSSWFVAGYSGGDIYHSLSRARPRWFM

One experiment has as its target T1, HCV NS5B (Hepatitis C virus genotype 1b, UniProt Q9WMX2).
T1 construct: The protein was expressed with an 18 amino acid C-terminal truncation to enhance the solubility; made in house; host or cells: E. coli BL21(DE3)
In words: Modified HCV NS5B RdRp enzyme assay (preincubation protocol). The format is biochemical. The settings on record: class symbol. In short, it runs like this: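 C-terminally truncated (Δ18) genotype 1b NS5B from E. coli, 14 nM, added to compound first, then polyA template (0.2 nM), 3H-UTP (0.29 μM) and oligo-dT12 primer precaptured on streptavidin SPA beads (20 nM). Run 4 h at 30° C, pH 7.5, 2% DMSO; IC50 fitted from seven concentrations.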
Turning to `COc1ccc2c(c1)C=C(c1c(C(=O)N3C[C@@H](C)N(C)[C@@H](C)C3)cnn1C1CCC1)Cn1c-2c(C2CCCCC2)c2ccc(C(=O)NS(=O)(=O)CC(C)C)cc21`, the IC50 lay within 1.7 to 500 nM.

The compound `COc1ccc2c(c1)C=C(c1c(C(=O)N3CCOCC3)cnn1C1CCC1)Cn1c-2c(C2CCCCC2)c2ccc(C(=O)NS(=O)(=O)CC(C)C)cc21` had an IC50 of 1.7 to 500 nM.

`COc1ccc2c(c1)C=C(c1c(C(=O)N3C[C@@H](C)O[C@@H](C)C3)cnn1C1CCC1)Cn1c-2c(C2CCCCC2)c2ccc(C(=O)NS(=O)(=O)CC(C)C)cc21` registered an IC50 of 1.7 to 500 nM.

Regarding `COc1ccc2c(c1)C=C(c1c(C(=O)N3CC4CCC(C3)N4C)cnn1C1CCC1)Cn1c-2c(C2CCCCC2)c2ccc(C(=O)NS(=O)(=O)CC(C)C)cc21`, the IC50 was 1.7 to 500 nM.

The compound `COc1ccc2c(c1)C=C(c1c(C(=O)N3C4CCC3CN(C)C4)cnn1C1CCC1)Cn1c-2c(C2CCCCC2)c2ccc(C(=O)NS(=O)(=O)C(C)C)cc21` displayed an IC50 of 1.7 to 500 nM.

The compound `COc1ccc2c(c1)C=C(c1c(C(=O)N3C[C@@H](C)N(C)[C@@H](C)C3)cnn1C1CCC1)Cn1c-2c(C2CCCCC2)c2ccc(C(=O)NS(=O)(=O)C(C)C)cc21` displayed an IC50 of 1.7 to 500 nM.

Take `COc1ccc2c(c1)C=C(c1c(C(=O)N3CCOCC3)cnn1C1CCC1)Cn1c-2c(C2CCCCC2)c2ccc(C(=O)NS(=O)(=O)C(C)C)cc21`: the IC50 is 1.7 to 500 nM.

Regarding `CCN1C[C@@H]2C[C@H]1CN2C(=O)c1c(C)nn(C2CCC2)c1C1=Cc2cc(OC)ccc2-c2c(C3CCCCC3)c3ccc(C(=O)NS(=O)(=O)N(C)C)cc3n2C1`, the IC50 lay in the range of 1.7 to 500 nM.

In the case of `CCN1C[C@@H]2C[C@H]1CN2C(=O)c1c(C)nn(C2CCC2)c1C1=Cc2cc(OC)ccc2-c2c(C3CCCCC3)c3ccc(C(=O)NS(=O)(=O)C(C)C)cc3n2C1`, the IC50 is 1.7 to 500 nM.

Regarding `COc1ccc2c(c1)C=C(c1c(C(=O)N3C4CCC3CN(C)C4)cnn1C1CCC1)Cn1c-2c(C2CCCCC2)c2ccc(C(=O)NS(=O)(=O)N(C)C)cc21`, the IC50 was in the range of 1.7 to 500 nM.

`COc1ccc2c(c1)C=C(c1c(C(=O)N3C4CCC3CN(C)C4)c(C)nn1C1CCC1)Cn1c-2c(C2CCCCC2)c2ccc(C(=O)NS(=O)(=O)N(C)C)cc21` came in with an IC50 of 1.7 to 500 nM.

In turn, `COc1ccc2c(c1)C=C(c1c(C(=O)N3C4CCC3CN(C)C4)c(C)nn1C1CCC1)Cn1c-2c(C2CCCCC2)c2ccc(C(=O)NS(=O)(=O)C(C)C)cc21` had an IC50 of 1.7 to 500 nM.

In the case of `COc1ccc2c(c1)C=C(c1c(C(=O)N3CCOCC3)c(C)nn1C1CCC1)Cn1c-2c(C2CCCCC2)c2ccc(C(=O)NS(=O)(=O)C(C)C)cc21`, the IC50 is 1.7 to 500 nM.

`COC[C@@H]1CN(C(=O)c2c(C)nn(C3CCC3)c2C2=Cc3cc(OC)ccc3-c3c(C4CCCCC4)c4ccc(C(=O)NS(=O)(=O)C(C)C)cc4n3C2)CCO1` showed an IC50 of 1.7 to 500 nM.

Take `COc1ccc2c(c1)C=C(c1c(C(=O)N3C4CCC3COC4)c(C)nn1C1CCC1)Cn1c-2c(C2CCCCC2)c2ccc(C(=O)NS(=O)(=O)C(C)C)cc21`: the IC50 was 1.7 to 500 nM.

In turn, `COc1ccc2c(c1)C=C(c1c(C(=O)N3C[C@@H]4C[C@H]3CO4)c(C)nn1C1CCC1)Cn1c-2c(C2CCCCC2)c2ccc(C(=O)NS(=O)(=O)C(C)C)cc21` gave an IC50 of 1.7 to 500 nM.

Compound `COc1ccc2c(c1)C=C(c1c(C(=O)N3C4CCCC3COC4)c(C)nn1C1CCC1)Cn1c-2c(C2CCCCC2)c2ccc(C(=O)NS(=O)(=O)C(C)C)cc21` gave an IC50 of 1.7 to 500 nM.

The compound `COc1ccc2c(c1)C=C(c1c(C(=O)N3CCN(C)CC3)c(C)nn1C1CCC1)Cn1c-2c(C2CCCCC2)c2ccc(C(=O)NS(=O)(=O)C(C)C)cc21` registered an IC50 of 1.7 to 500 nM.

On to `COc1ccc2c(c1)C=C(c1c(C(=O)N3C[C@@H](C)N(C)[C@@H](C)C3)c(C)nn1C1CCC1)Cn1c-2c(C2CCCCC2)c2ccc(C(=O)NS(=O)(=O)C(C)C)cc21`, for which the IC50 was 1.7 to 500 nM.

Staying with this experiment, now noted: exact value.
`CCN1C[C@@H]2C[C@H]1CN2C(=O)c1c(C)nn(C2CCC2)c1C1=Cc2cc(OC)ccc2-c2c(C3CCCCC3)c3ccc(C(=O)NS(=O)(=O)N(C)C)cc3n2C1` registered an IC50 of 3.4 nM. This counts as single-digit nanomolar.

In another experiment the test system is HCV replicon. Briefly: HCV replicon assay (FRET or luciferase reporter). The format is cell-based. As to conditions: Hepatitis C virus, one of the methods described, class symbol. The procedure, abridged:
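HCV replicon Huh-7 cells were exposed to titrated compound at 37 °C, with Alamar blue as a cytotoxicity read. Replication was measured by NS3 cleavage of an EDANS/DABCYL FRET peptide (20 μM, 340/490 nm kinetic read) or by Renilla luciferase, with background from high-dose protease inhibitor wells. EC50 was taken as 50% signal reduction; a 384-well format used 3.0×10^3 cells/well, 0.5% DMSO and 3 days.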
Regarding `COc1ccc2c(c1)C=C(c1c(C(=O)N3C[C@@H](C)N(C)[C@@H](C)C3)cnn1C1CCC1)Cn1c-2c(C2CCCCC2)c2ccc(C(=O)NS(=O)(=O)CC(C)C)cc21`, the EC50 fell in the range of 1.7 to 500 nM.

For the compound `COc1ccc2c(c1)C=C(c1c(C(=O)N3CCOCC3)cnn1C1CCC1)Cn1c-2c(C2CCCCC2)c2ccc(C(=O)NS(=O)(=O)CC(C)C)cc21`, the EC50 was 1.7 to 500 nM.

`COc1ccc2c(c1)C=C(c1c(C(=O)N3C[C@@H](C)O[C@@H](C)C3)cnn1C1CCC1)Cn1c-2c(C2CCCCC2)c2ccc(C(=O)NS(=O)(=O)CC(C)C)cc21`: the EC50 lay in the range of 1.7 to 500 nM.

`COc1ccc2c(c1)C=C(c1c(C(=O)N3CC4CCC(C3)N4C)cnn1C1CCC1)Cn1c-2c(C2CCCCC2)c2ccc(C(=O)NS(=O)(=O)CC(C)C)cc21`: the half-maximal effective concentration (EC50) fell in the range of 1.7 to 500 nM.

Take `COc1ccc2c(c1)C=C(c1c(C(=O)N3C4CCC3CN(C)C4)cnn1C1CCC1)Cn1c-2c(C2CCCCC2)c2ccc(C(=O)NS(=O)(=O)C(C)C)cc21`: the EC50 lay in the range of 1.7 to 500 nM.

On to `COc1ccc2c(c1)C=C(c1c(C(=O)N3C[C@@H](C)N(C)[C@@H](C)C3)cnn1C1CCC1)Cn1c-2c(C2CCCCC2)c2ccc(C(=O)NS(=O)(=O)C(C)C)cc21`, for which the EC50 lay within 1.7 to 500 nM.

For the compound `COc1ccc2c(c1)C=C(c1c(C(=O)N3CCOCC3)cnn1C1CCC1)Cn1c-2c(C2CCCCC2)c2ccc(C(=O)NS(=O)(=O)C(C)C)cc21`, the EC50 was in the range of 1.7 to 500 nM.

The compound `CCN1C[C@@H]2C[C@H]1CN2C(=O)c1c(C)nn(C2CCC2)c1C1=Cc2cc(OC)ccc2-c2c(C3CCCCC3)c3ccc(C(=O)NS(=O)(=O)N(C)C)cc3n2C1` came in with an EC50 of 1.7 to 500 nM.

The compound `CCN1C[C@@H]2C[C@H]1CN2C(=O)c1c(C)nn(C2CCC2)c1C1=Cc2cc(OC)ccc2-c2c(C3CCCCC3)c3ccc(C(=O)NS(=O)(=O)C(C)C)cc3n2C1` registered an EC50 of 1.7 to 500 nM.

Consider `COc1ccc2c(c1)C=C(c1c(C(=O)N3C4CCC3CN(C)C4)cnn1C1CCC1)Cn1c-2c(C2CCCCC2)c2ccc(C(=O)NS(=O)(=O)N(C)C)cc21`, for which the EC50 lay within 1.7 to 500 nM.

Compound `COc1ccc2c(c1)C=C(c1c(C(=O)N3C4CCC3CN(C)C4)c(C)nn1C1CCC1)Cn1c-2c(C2CCCCC2)c2ccc(C(=O)NS(=O)(=O)N(C)C)cc21` displayed an EC50 of 1.7 to 500 nM.

`COc1ccc2c(c1)C=C(c1c(C(=O)N3C4CCC3CN(C)C4)c(C)nn1C1CCC1)Cn1c-2c(C2CCCCC2)c2ccc(C(=O)NS(=O)(=O)C(C)C)cc21`: the EC50 lay within 1.7 to 500 nM.

`COc1ccc2c(c1)C=C(c1c(C(=O)N3CCOCC3)c(C)nn1C1CCC1)Cn1c-2c(C2CCCCC2)c2ccc(C(=O)NS(=O)(=O)C(C)C)cc21` showed an EC50 of 1.7 to 500 nM.

As for `COC[C@@H]1CN(C(=O)c2c(C)nn(C3CCC3)c2C2=Cc3cc(OC)ccc3-c3c(C4CCCCC4)c4ccc(C(=O)NS(=O)(=O)C(C)C)cc4n3C2)CCO1`, the EC50 was 1.7 to 500 nM.

`COc1ccc2c(c1)C=C(c1c(C(=O)N3C4CCC3COC4)c(C)nn1C1CCC1)Cn1c-2c(C2CCCCC2)c2ccc(C(=O)NS(=O)(=O)C(C)C)cc21`: the EC50 is 1.7 to 500 nM.

As for `COc1ccc2c(c1)C=C(c1c(C(=O)N3C[C@@H]4C[C@H]3CO4)c(C)nn1C1CCC1)Cn1c-2c(C2CCCCC2)c2ccc(C(=O)NS(=O)(=O)C(C)C)cc21`, the EC50 fell in the range of 1.7 to 500 nM.

For the compound `COc1ccc2c(c1)C=C(c1c(C(=O)N3C4CCCC3COC4)c(C)nn1C1CCC1)Cn1c-2c(C2CCCCC2)c2ccc(C(=O)NS(=O)(=O)C(C)C)cc21`, the EC50 was in the range of 1.7 to 500 nM.

Consider `COc1ccc2c(c1)C=C(c1c(C(=O)N3CCN(C)CC3)c(C)nn1C1CCC1)Cn1c-2c(C2CCCCC2)c2ccc(C(=O)NS(=O)(=O)C(C)C)cc21`, for which the EC50 lay in the range of 1.7 to 500 nM.

For `COc1ccc2c(c1)C=C(c1c(C(=O)N3C[C@@H](C)N(C)[C@@H](C)C3)c(C)nn1C1CCC1)Cn1c-2c(C2CCCCC2)c2ccc(C(=O)NS(=O)(=O)C(C)C)cc21`, the EC50 fell in the range of 1.7 to 500 nM.

Still in this experiment, the particulars now being: Hepatitis C virus, one of the methods described, exact value.
For the compound `CCN1C[C@@H]2C[C@H]1CN2C(=O)c1c(C)nn(C2CCC2)c1C1=Cc2cc(OC)ccc2-c2c(C3CCCCC3)c3ccc(C(=O)NS(=O)(=O)N(C)C)cc3n2C1`, the EC50 was 10 nM.

In general, IC50 refers to the concentration that inhibits the measured activity by half. A low value points to greater potency. As a reminder, the EC50 is the midpoint of the concentration-response curve.
